Reference: ChEMBL document CHEMBL6109087, “Design and synthesis of azole derivatives of echinocystic acid as α-glucosidase inhibitors with hypoglycemic activity” (Eur J Med Chem, 2025)
The source made the active and inactive calls. The rule behind the calls is not given here.

How the values were obtained:
[1] = target: Alpha-glucosidase (Saccharomyces cerevisiae S288c) (UniProt P53341+P38158+P07265); assay: Inhibition of alpha-glucosidase using 4-Nitrophenyl-[…]-D-glucopyranoside (pNPG) as substrate assessed as inhibition rate at 30 uM relative control; assay type: protein assay
Alpha-glucosidase [2] = target: T1, Alpha-glucosidase (Saccharomyces cerevisiae S288c, UniProt P53341+P38158+P07265); assay: Inhibition of alpha-glucosidase using 4-Nitrophenyl-[…]-D-glucopyranoside (pNPG) as substrate; assay type: protein assay
Alpha-glucosidase [3] = target: T1, Alpha-glucosidase; assay: Inhibition of alpha-glucosidase; assay type: protein assay
Alpha-glucosidase [4] = target: T1, Alpha-glucosidase; assay: Binding affinity to alpha-glucosidase assessed as inhibition constant; assay type: protein assay
Alpha-glucosidase [5] = target: T1, Alpha-glucosidase; assay: Inhibition of alpha-glucosidase using P-nitro phenyl-alpha-D-glucopyranoside as substrate assessed as substrate hydrolysis; assay type: protein assay
Mus musculus = assay: Reduction in blood glucose concentration in male C57BL/6J mouse assessed as peak blood glucose and glucose AUC at 100 mg/kg preadministered for 30 mins via gavage followed by treated 2 g/Kg of sucrose and measured up to 120 mins post sucrose challenge by sucrose loading test; assay type: functional, organism-based; settings: time 150.0 min
[6] = Cytotoxicity against human LO2 cells assessed as cell viability measured after 24 hrs by MTT assay; assay type: toxicity, cell-based, L02
[7] = system: alpha-glucosidase (unknown origin); assay: Selectivity index, ratio of CC50 for Cytotoxicity against human LO2 cells to IC50 for alpha-glucosidase (unknown origin); assay type: toxicity, cell-based, L02; settings: read-out: Selectivity Index

| Structure (SMILES) | inhibition [1] | IC50 (Alpha-glucosidase [2]) | further results |
| --- | --- | --- | --- |
| CC1(C)CC[C@]2(C(=O)OCC(=O)NCc3cn(-c4ccc(Br)cc4)nn3)[C@H](O)C[C@]3(C)C(=CC[C@@H]4[C@@]5(C)CC[C@H](O)C(C)(C)[C@@H]5CC[C@]43C)[C@@H]2C1 | 68% | 23.62 µM |  |
| O=C(Cc1cccs1)N[C@@H]1C(=O)N2C(C(=O)O)=C(CSc3nc[nH]n3)CS[C@H]12 [CEFETRIZOLE] |  |  | IC50 (Alpha-glucosidase [3]): 2.1 µM; Ki (Alpha-glucosidase [4]): 0.578 µM |
| COc1ccc(NC(=O)Cn2cc(COc3cc(O)c4c(=O)c5ccc(OC)cc5oc4c3)nn2)c(OC)c1 |  |  | IC50 (Alpha-glucosidase [5]): 2.06 µM |
| C[C@H]1O[C@H](O[C@H]2[C@H](O)[C@@H](O)[C@@H](O[C@H]3[C@H](O)[C@@H](O)C(O)O[C@@H]3CO)O[C@@H]2CO)[C@H](O)[C@@H](O)[C@@H]1N[C@H]1C=C(CO)[C@@H](O)[C@H](O)[C@H]1O (some centres not stated) |  |  | Activity (Mus musculus): Active |
| CC1(C)CC[C@]2(C(=O)OCc3nc(-c4ccc(Cl)c(Cl)c4)no3)[C@H](O)C[C@]3(C)C(=CC[C@@H]4[C@@]5(C)CC[C@H](O)C(C)(C)[C@@H]5CC[C@]43C)[C@@H]2C1 | 36.5% | > 30 µM |  |
| COc1cc(-c2nnc(COC(=O)[C@]34CCC(C)(C)C[C@H]3C3=CC[C@@H]5[C@@]6(C)CC[C@H](O)C(C)(C)[C@@H]6CC[C@@]5(C)[C@]3(C)C[C@H]4O)o2)cc(OC)c1OC | 49.1% | > 30 µM |  |
| CC1(C)CC[C@]2(C(=O)OCc3nc(-c4ccc(Cl)cc4)no3)[C@H](O)C[C@]3(C)C(=CC[C@@H]4[C@@]5(C)CC[C@H](O)C(C)(C)[C@@H]5CC[C@]43C)[C@@H]2C1 | 85.1% | 4.11 µM | CC50 at 24 h [6]: 108 µM; selectivity ratio [7]: 26.4 |
| COc1ccc(-c2nnc(COC(=O)[C@]34CCC(C)(C)C[C@H]3C3=CC[C@@H]5[C@@]6(C)CC[C@H](O)C(C)(C)[C@@H]6CC[C@@]5(C)[C@]3(C)C[C@H]4O)o2)cc1 | 56.5% | 22.28 µM |  |
| CC1(C)CC[C@]2(C(=O)NCc3cn(-c4ccccc4)nn3)[C@H](O)C[C@]3(C)C(=CC[C@@H]4[C@@]5(C)CC[C@H](O)C(C)(C)[C@@H]5CC[C@]43C)[C@@H]2C1 | 55.9% | 22.72 µM |  |
| CC1(C)CC[C@]2(C(=O)NCc3cn(-c4ccc(F)cc4)nn3)[C@H](O)C[C@]3(C)C(=CC[C@@H]4[C@@]5(C)CC[C@H](O)C(C)(C)[C@@H]5CC[C@]43C)[C@@H]2C1 | 47.7% | > 30 µM |  |
| CC1(C)CC[C@]2(C(=O)OCc3nc(-c4ccc(F)cc4)no3)[C@H](O)C[C@]3(C)C(=CC[C@@H]4[C@@]5(C)CC[C@H](O)C(C)(C)[C@@H]5CC[C@]43C)[C@@H]2C1 | 64.6% | 16.01 µM |  |
| CC1(C)CC[C@]2(C(=O)OCc3nc(-c4ccccc4)no3)[C@H](O)C[C@]3(C)C(=CC[C@@H]4[C@@]5(C)CC[C@H](O)C(C)(C)[C@@H]5CC[C@]43C)[C@@H]2C1 | 58.3% | 26.2 µM |  |
| CC1(C)CC[C@]2(C(=O)OCCn3ncn(-c4ccc(Cl)c(Cl)c4)c3=O)[C@H](O)C[C@]3(C)C(=CC[C@@H]4[C@@]5(C)CC[C@H](O)C(C)(C)[C@@H]5CC[C@]43C)[C@@H]2C1 | 80.3% | 3.42 µM | CC50 at 24 h [6]: 66.8 µM; selectivity ratio [7]: 19.5 |
| CC1(C)CC[C@]2(C(=O)OCc3nnc(-c4ccc(Cl)cc4)o3)[C@H](O)C[C@]3(C)C(=CC[C@@H]4[C@@]5(C)CC[C@H](O)C(C)(C)[C@@H]5CC[C@]43C)[C@@H]2C1 | 67.3% | 21.94 µM |  |
| CC1(C)CC[C@]2(C(=O)NCc3cn(-c4ccc(Cl)cc4)nn3)[C@H](O)C[C@]3(C)C(=CC[C@@H]4[C@@]5(C)CC[C@H](O)C(C)(C)[C@@H]5CC[C@]43C)[C@@H]2C1 | 69.2% | 21.19 µM |  |
| CC1(C)CC[C@]2(C(=O)OCC(=O)NCc3cn(-c4ccc(Cl)c(Cl)c4)nn3)[C@H](O)C[C@]3(C)C(=CC[C@@H]4[C@@]5(C)CC[C@H](O)C(C)(C)[C@@H]5CC[C@]43C)[C@@H]2C1 | 87.3% | 3.4 µM | CC50 at 24 h [6]: 198 µM; selectivity ratio [7]: 58.3 |

| Structure (SMILES) | inhibition [1] | IC50 (Alpha-glucosidase [2]) | further results |
| --- | --- | --- | --- |
| CC1(C)CC[C@]2(C(=O)OCc3nc(-c4ccc(Cn5cncn5)cc4)no3)[C@H](O)C[C@]3(C)C(=CC[C@@H]4[C@@]5(C)CC[C@H](O)C(C)(C)[C@@H]5CC[C@]43C)[C@@H]2C1 | 10.5% | > 30 µM |  |
| CC1(C)CC[C@]2(C(=O)OCCn3ncn(-c4ccccc4)c3=O)[C@H](O)C[C@]3(C)C(=CC[C@@H]4[C@@]5(C)CC[C@H](O)C(C)(C)[C@@H]5CC[C@]43C)[C@@H]2C1 | 46.1% | > 30 µM |  |
| CC1(C)CC[C@]2(C(=O)OCC(=O)NCc3cn(-c4ccccc4)nn3)[C@H](O)C[C@]3(C)C(=CC[C@@H]4[C@@]5(C)CC[C@H](O)C(C)(C)[C@@H]5CC[C@]43C)[C@@H]2C1 | 59.9% | 21.7 µM |  |
| COc1ccc(-n2cc(CNC(=O)COC(=O)[C@]34CCC(C)(C)C[C@H]3C3=CC[C@@H]5[C@@]6(C)CC[C@H](O)C(C)(C)[C@@H]6CC[C@@]5(C)[C@]3(C)C[C@H]4O)nn2)cc1 | 51.4% | > 30 µM |  |
| COc1ccc(-c2noc(COC(=O)[C@]34CCC(C)(C)C[C@H]3C3=CC[C@@H]5[C@@]6(C)CC[C@H](O)C(C)(C)[C@@H]6CC[C@@]5(C)[C@]3(C)C[C@H]4O)n2)cc1 | 94.8% | 3.41 µM | CC50 at 24 h [6]: 38.5 µM; selectivity ratio [7]: 11.3 |
| CC1(C)CC[C@]2(C(=O)OCC(=O)NCc3cn(-c4ccc(F)cc4)nn3)[C@H](O)C[C@]3(C)C(=CC[C@@H]4[C@@]5(C)CC[C@H](O)C(C)(C)[C@@H]5CC[C@]43C)[C@@H]2C1 | 61.5% | 18.52 µM |  |
| CC1(C)CC[C@]2(C(=O)OCC(=O)NCc3cn(-c4ccc(Cl)cc4)nn3)[C@H](O)C[C@]3(C)C(=CC[C@@H]4[C@@]5(C)CC[C@H](O)C(C)(C)[C@@H]5CC[C@]43C)[C@@H]2C1 | 63.3% | 18.18 µM |  |
| COc1cc(-n2cc(CNC(=O)[C@]34CCC(C)(C)C[C@H]3C3=CC[C@@H]5[C@@]6(C)CC[C@H](O)C(C)(C)[C@@H]6CC[C@@]5(C)[C@]3(C)C[C@H]4O)nn2)cc(OC)c1OC | 6.67% | > 30 µM |  |
| CC1(C)CC[C@]2(C(=O)O)[C@H](O)C[C@]3(C)C(=CC[C@@H]4[C@@]5(C)CC[C@H](O)C(C)(C)[C@@H]5CC[C@]43C)[C@@H]2C1 | 18.4% | 59.91 µM | CC50 at 24 h [6]: 56.2 µM; selectivity ratio [7]: 0.94; Activity (Mus musculus): Active |
| COc1ccc(-n2cc(CNC(=O)[C@]34CCC(C)(C)C[C@H]3C3=CC[C@@H]5[C@@]6(C)CC[C@H](O)C(C)(C)[C@@H]6CC[C@@]5(C)[C@]3(C)C[C@H]4O)nn2)cc1 | 48.5% | > 30 µM |  |
| COc1ccc(CC2(Cc3cn(-c4ccc(C)cc4)nn3)C(=O)OC(C)(C)OC2=O)cc1 |  |  | IC50 (Alpha-glucosidase [5]): 4.63 µM |
| Cc1ccc(-n2cc(CNC(=O)[C@]34CCC(C)(C)C[C@H]3C3=CC[C@@H]5[C@@]6(C)CC[C@H](O)C(C)(C)[C@@H]6CC[C@@]5(C)[C@]3(C)C[C@H]4O)nn2)cc1 | 63% | 21.25 µM |  |
| CC1(C)CC[C@]2(C(=O)OCCn3ncn(-c4ccc(Cl)cc4)c3=O)[C@H](O)C[C@]3(C)C(=CC[C@@H]4[C@@]5(C)CC[C@H](O)C(C)(C)[C@@H]5CC[C@]43C)[C@@H]2C1 | 47.7% | 28.69 µM |  |
| CC1(C)CC[C@]2(C(=O)OCCn3ncn(-c4ccc(F)cc4)c3=O)[C@H](O)C[C@]3(C)C(=CC[C@@H]4[C@@]5(C)CC[C@H](O)C(C)(C)[C@@H]5CC[C@]43C)[C@@H]2C1 | 56.9% | 29.32 µM |  |
| CC1(C)CC[C@]2(C(=O)OCc3nnc(-c4ccc(Cl)c(Cl)c4)o3)[C@H](O)C[C@]3(C)C(=CC[C@@H]4[C@@]5(C)CC[C@H](O)C(C)(C)[C@@H]5CC[C@]43C)[C@@H]2C1 | 69.8% | 17.25 µM |  |
| CC1(C)CC[C@]2(C(=O)OCc3nnc(-c4ccccc4)o3)[C@H](O)C[C@]3(C)C(=CC[C@@H]4[C@@]5(C)CC[C@H](O)C(C)(C)[C@@H]5CC[C@]43C)[C@@H]2C1 | 57.2% | 19.36 µM |  |
